Each structure is given as a SMILES string.

The target in one assay is T1, human TLR8 (Homo sapiens, UniProt Q9NR97).
T1 construct: host or cells: HEK293 (HEK-BLUE-hTLR8)
T1 sequence (Q9NR97 27-1041): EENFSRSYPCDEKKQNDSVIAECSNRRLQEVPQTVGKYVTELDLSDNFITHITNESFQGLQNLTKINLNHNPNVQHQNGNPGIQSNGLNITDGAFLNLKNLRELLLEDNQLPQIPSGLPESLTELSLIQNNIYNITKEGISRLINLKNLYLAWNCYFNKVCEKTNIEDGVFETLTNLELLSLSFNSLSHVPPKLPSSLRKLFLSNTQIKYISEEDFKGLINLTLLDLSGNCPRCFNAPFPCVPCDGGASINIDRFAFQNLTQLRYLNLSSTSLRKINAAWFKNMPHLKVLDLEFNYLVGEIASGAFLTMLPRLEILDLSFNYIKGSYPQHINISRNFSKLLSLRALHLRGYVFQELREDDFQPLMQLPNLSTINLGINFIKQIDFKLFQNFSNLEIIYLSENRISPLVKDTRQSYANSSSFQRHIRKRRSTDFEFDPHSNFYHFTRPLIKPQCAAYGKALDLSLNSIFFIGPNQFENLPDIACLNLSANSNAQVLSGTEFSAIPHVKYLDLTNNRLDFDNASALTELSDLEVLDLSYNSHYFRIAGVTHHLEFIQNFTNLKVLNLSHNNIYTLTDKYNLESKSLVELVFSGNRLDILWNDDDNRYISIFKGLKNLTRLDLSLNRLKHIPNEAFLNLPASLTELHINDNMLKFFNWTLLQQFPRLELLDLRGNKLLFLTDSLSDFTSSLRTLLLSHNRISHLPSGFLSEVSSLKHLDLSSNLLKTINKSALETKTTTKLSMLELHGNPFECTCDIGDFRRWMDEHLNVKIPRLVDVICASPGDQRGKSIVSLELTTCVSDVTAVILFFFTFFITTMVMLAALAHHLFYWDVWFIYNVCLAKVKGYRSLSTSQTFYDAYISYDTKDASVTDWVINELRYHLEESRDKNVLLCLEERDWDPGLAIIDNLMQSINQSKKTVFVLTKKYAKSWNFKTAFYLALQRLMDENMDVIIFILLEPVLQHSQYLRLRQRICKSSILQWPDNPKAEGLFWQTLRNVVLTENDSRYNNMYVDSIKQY
The experiment in a line: TLR activation, HEK-BLUE-hTLR8 SEAP reporter cells. In kind it is cell-based. Particulars: 16-20 hours, lowest concentration giving SEAP response at least 2x vehicle control, tested 0.01-30 micromolar. On the procedure: (§1) HEK-BLUE-hTLR7 or hTLR8 reporter cells were obtained from InvivoGen, San Diego, Calif. According to the manufacturer's description, these reporter cells were prepared by co-transfection of HEK293 cells with an inducible secreted embryonic alkaline phosphatase (SEAP) reporter gene and either the human TLR7 or TLR8 gene. The SEAP reporter gene was placed under the control of an IFN-β minimal promoter fused to five NF-κB and AP-1-binding sites. In the presence of a TLR ligand, activation of NF-κB and AP-1 occurs, resulting in a corresponding increase in SEAP levels.
(§2) In the assay, the HEK cells were grown and maintained using standard cell culture techniques in a growth medium that contained Dulbecco's Modified Eagle Medium (ThermoFisher Scientific Incorporated, Waltham, Mass.) supplemented with 1% penicillin/streptomycin and 10% heat-inactivated Gibco fetal bovine serum (ThermoFisher Scientific). Each compound was solubilized in DMSO to create a 3 mM stock solution. The stock solution was then further diluted with the growth medium to prepare serial dilutions. Each test compound was tested at a concentration of 30, 10, 3.3, 1.1, 0.37, 0.12, 0.04, and 0.01 micromolar using a 96-well format with 5×10^4 cells and 200 microliters of growth medium per well.
(§3) For each compound, hTLR7, hTLR8, and their respective null control HEK cells were screened. DMSO serially diluted into the growth medium served as the vehicle control. Cell culture supernatants containing the SEAP reporter were collected after an incubation period of 16-20 hours in a cell culture incubator (37° C. and 5% CO2), and either analyzed immediately or stored at −80° C. SEAP levels were measured using the colorimetric enzyme assay (QUANTI-BLUE (InvivoGen) according to manufacturer's instructions.
(§4) Specifically, the minimum effective concentration of each compound (micromolar) was determined as the lowest concentration of the compound that produced a SEAP expression response at least 2× greater than that observed with the vehicle control wells.

The next assay addresses T2, human TLR7 (Homo sapiens, UniProt Q9NYK1).
T2 construct: host or cells: HEK293 (HEK-BLUE-hTLR7)
T2 sequence (Q9NYK1 27-1049): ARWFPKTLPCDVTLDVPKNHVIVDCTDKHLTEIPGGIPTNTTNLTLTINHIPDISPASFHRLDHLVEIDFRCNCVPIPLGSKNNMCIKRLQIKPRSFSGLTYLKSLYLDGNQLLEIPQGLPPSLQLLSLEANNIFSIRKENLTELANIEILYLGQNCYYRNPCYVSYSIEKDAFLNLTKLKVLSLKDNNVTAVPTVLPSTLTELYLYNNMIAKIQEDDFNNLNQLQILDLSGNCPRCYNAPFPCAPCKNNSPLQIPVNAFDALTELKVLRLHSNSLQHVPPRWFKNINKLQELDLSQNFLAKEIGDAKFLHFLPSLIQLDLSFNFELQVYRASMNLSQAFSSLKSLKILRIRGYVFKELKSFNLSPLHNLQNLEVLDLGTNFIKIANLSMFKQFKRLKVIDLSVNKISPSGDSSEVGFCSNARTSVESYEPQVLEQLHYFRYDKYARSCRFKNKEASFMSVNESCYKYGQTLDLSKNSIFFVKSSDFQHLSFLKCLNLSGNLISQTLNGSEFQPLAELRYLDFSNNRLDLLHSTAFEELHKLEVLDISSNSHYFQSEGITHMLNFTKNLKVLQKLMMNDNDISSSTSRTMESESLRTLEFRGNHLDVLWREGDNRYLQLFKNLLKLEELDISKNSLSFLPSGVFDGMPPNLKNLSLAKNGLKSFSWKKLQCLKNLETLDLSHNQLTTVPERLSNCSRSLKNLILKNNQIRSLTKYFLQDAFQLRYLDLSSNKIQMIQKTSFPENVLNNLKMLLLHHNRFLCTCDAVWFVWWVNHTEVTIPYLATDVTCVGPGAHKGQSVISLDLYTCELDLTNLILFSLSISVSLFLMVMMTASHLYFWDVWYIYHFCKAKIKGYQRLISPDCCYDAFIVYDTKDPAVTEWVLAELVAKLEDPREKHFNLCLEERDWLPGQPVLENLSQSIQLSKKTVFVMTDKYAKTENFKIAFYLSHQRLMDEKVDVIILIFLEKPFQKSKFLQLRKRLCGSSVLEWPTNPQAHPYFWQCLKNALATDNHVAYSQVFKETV
The experiment in a line: TLR activation, HEK-BLUE-hTLR7 SEAP reporter cells. Particulars: 16-20 hours, lowest concentration giving SEAP response at least 2x vehicle control, tested 0.01-30 micromolar. In kind it is cell-based. Here is the method: as §1, §2, §3, §4

On to `C[C@H](n1cnc2c(N)nc3ccccc3c21)C(C)(C)C` [Example 4, 1-[(1S)-1,2,2-trimethylpropyl]imidazo[4,5-c]quinolin-4-amine], for which the “MEC to Produce TLR Activation: TLR 8” value on human TLR8 was greater than 30 µM. Also, the “MEC to Produce TLR Activation: TLR 7” value at human TLR7 was greater than 30 µM.
On to `C[C@H](n1cnc2c(N)nc3ccccc3c21)C(C)(C)O` [Example 10, (3S)-3-(4-aminoimidazo[4,5-c]quinolin-1-yl)-2-methyl-butan-2-ol], for which, on human TLR8, the “MEC to Produce TLR Activation: TLR 8” value is greater than 30 µM. The “MEC to Produce TLR Activation: TLR 7” value at human TLR7 is greater than 30 µM.
Turning to `CC[C@@H](n1cnc2c(N)nc3ccccc3c21)C(C)(C)O` [Example 11, (3R)-3-(4-aminoimidazo[4,5-c]quinolin-1-yl)-2-methyl-pentan-2-ol], the “MEC to Produce TLR Activation: TLR 8” value at human TLR8 is greater than 30 µM. Moreover, the “MEC to Produce TLR Activation: TLR 7” value at human TLR7 is 1.1 µM.
On to `C[C@@H](C1CCCCC1)n1cnc2c(N)nc3ccccc3c21` [Example 6, 1-[(1S)-1-cyclohexylethyl]imidazo[4,5-c]quinolin-4-amine], for which the “MEC to Produce TLR Activation: TLR 8” value on human TLR8 was greater than 30 µM. The “MEC to Produce TLR Activation: TLR 7” value at human TLR7 is greater than 30 µM.
Regarding `CC(C)C[C@H](n1cnc2c(N)nc3ccccc3c21)C(C)(C)O` [Example 18, (3S)-3-(4-aminoimidazo[4,5-c]quinolin-1-yl)-2,5-dimethyl-hexan-2-ol], at human TLR8, the “MEC to Produce TLR Activation: TLR 8” value is greater than 30 µM. In addition, the “MEC to Produce TLR Activation: TLR 7” value on human TLR7 is greater than 30 µM.
Consider `CCCC[C@@H](n1cnc2c(N)nc3ccccc3c21)C(C)(C)C` [Example 8, 1-[(1R)-1-tert-butylpentyl]imidazo[4,5-c]quinolin-4-amine], for which, at human TLR8, the “MEC to Produce TLR Activation: TLR 8” value was greater than 30 µM. Also, the “MEC to Produce TLR Activation: TLR 7” value on human TLR7 is no more than 0.01 µM.
The matching figures for `CCCC[C@H](C(C)C)n1cnc2c(N)nc3ccccc3c21` [Example 7, 1-[(1R)-1-isopropylpentyl]imidazo[4,5-c]quinolin-4-amine]: greater than 30 µM and 0.04 µM.
Turning to `CC(C)Cn1cnc2c(N)nc3ccccc3c21` [Comparative Example 1, 1-isobutylimidazo[4,5-c]quinolin-4-amine, reference compound], at human TLR8, the “MEC to Produce TLR Activation: TLR 8” value is greater than 30 µM. The “MEC to Produce TLR Activation: TLR 7” value on human TLR7 amounted to 10 µM.
Take `CCC[C@H](n1cnc2c(N)nc3ccccc3c21)C(C)(C)O` [Example 14, (3S)-3-(4-aminoimidazo[4,5-c]quinolin-1-yl)-2-methyl-hexan-2-ol]: on human TLR8, the “MEC to Produce TLR Activation: TLR 8” value was greater than 30 µM. Moreover, the “MEC to Produce TLR Activation: TLR 7” value at human TLR7 was greater than 30 µM.
Consider `CC(C)[C@@H](C)n1cnc2c(N)nc3ccccc3c21` [Example 1, 1-[(1R)-1,2-dimethylpropyl]imidazo[4,5-c]quinolin-4-amine], for which the “MEC to Produce TLR Activation: TLR 8” value at human TLR8 is greater than 30 µM. Further, the “MEC to Produce TLR Activation: TLR 7” value on human TLR7 stood at 1.1 µM.
Take `C[C@H](n1cnc2c(N)nc3ccccc3c21)C(C)(C)F` [Example 21, 1-[(1S)-2-fluoro-1,2-dimethyl-propyl]imidazo[4,5-c]quinolin-4-amine]: on human TLR8, the “MEC to Produce TLR Activation: TLR 8” value is greater than 30 µM. In addition, the “MEC to Produce TLR Activation: TLR 7” value at human TLR7 was greater than 30 µM.
In the case of `C[C@@H](n1cnc2c(N)nc3ccccc3c21)C(C)(C)F` [Example 20, 1-[(1R)-2-fluoro-1,2-dimethyl-propyl]imidazo[4,5-c]quinolin-4-amine], at human TLR8, the “MEC to Produce TLR Activation: TLR 8” value was greater than 30 µM. Also, on human TLR7, the “MEC to Produce TLR Activation: TLR 7” value is 3.3 µM.
As to `CC(C)(O)Cn1cnc2c(N)nc3ccccc3c21` [Comparative Example 2, 1-(4-aminoimidazo[4,5-c]quinolin-1-yl)-2-methyl-propan-2-ol, reference compound], the “MEC to Produce TLR Activation: TLR 8” value on human TLR8 was greater than 30 µM. At human TLR7, the “MEC to Produce TLR Activation: TLR 7” value was found to be 10 µM.
For `C[C@H](C1CCCCC1)n1cnc2c(N)nc3ccccc3c21` [Example 5, 1-[(1R)-1-cyclohexylethyl]imidazo[4,5-c]quinolin-4-amine], at human TLR8, the “MEC to Produce TLR Activation: TLR 8” value was greater than 30 µM. In addition, the “MEC to Produce TLR Activation: TLR 7” value at human TLR7 turned out to be 1.11 µM.
On to `CCC(O)(CC)[C@@H](C)n1cnc2c(N)nc3ccccc3c21` [Example 19, (2R)-2-(4-aminoimidazo[4,5-c]quinolin-1-yl)-3-ethyl-pentan-3-ol], for which the “MEC to Produce TLR Activation: TLR 8” value at human TLR8 is greater than 30 µM. Further, the “MEC to Produce TLR Activation: TLR 7” value at human TLR7 was determined as 3.3 µM.
The corresponding values for `C[C@@H](n1cnc2c(N)nc3ccccc3c21)C(C)(C)C` [Example 3, 1-[(1R)-1,2,2-trimethylpropyl]imidazo[4,5-c]quinolin-4-amine] are greater than 30 µM and 1.11 µM.
The matching figures for `C[C@@H](n1cnc2c(N)nc3ccccc3c21)C(C)(C)O` [Example 9, (3R)-3-(4-aminoimidazo[4,5-c]quinolin-1-yl)-2-methyl-butan-2-ol]: greater than 30 µM and 3.3 µM.
As to `CCC[C@@H](n1cnc2c(N)nc3ccccc3c21)C(C)(C)O` [Example 13, (3R)-3-(4-aminoimidazo[4,5-c]quinolin-1-yl)-2-methyl-hexan-2-ol], the “MEC to Produce TLR Activation: TLR 8” value on human TLR8 stood at 10 µM. The “MEC to Produce TLR Activation: TLR 7” value at human TLR7 turned out to be 0.04 µM.
Consider `CC(C)[C@H](C)n1cnc2c(N)nc3ccccc3c21` [Example 2, 1-[(1S)-1,2-dimethylpropyl]imidazo[4,5-c]quinolin-4-amine], for which the “MEC to Produce TLR Activation: TLR 8” value at human TLR8 is greater than 30 µM. Also, on human TLR7, the “MEC to Produce TLR Activation: TLR 7” value is greater than 30 µM.

Values taken from patent US20220177471A1, “N-1 BRANCHED ALKYL SUBSTITUTED IMIDAZO[4,5-C]QUINOLINE COMPOUNDS, COMPOSITIONS, AND METHODS” (3M INNOVATIVE PROPERTIES COMPANY, priority 2019, published 2022).
